Measured values: ChEMBL document CHEMBL6177931, “Exploring diverse frontiers: Advancements of bioactive 4-aminoquinoline-based molecular hybrids in targeted therapeutics and beyond” (Eur J Med Chem, 2024)
Converted amounts (≈) assume the structure as drawn.

Key:
HL-60 [1] = experiment: Anticancer activity against human HL-60 cells assessed as cell growth inhibition incubated for 72 hrs by CellTiter96 aqueous Non-Radioactive Cell Proliferation Assay; assay type: functional
K562 = experiment: Anticancer activity against human K562 cells assessed as cell growth inhibition incubated for 72 hrs by CellTiter96 aqueous Non-Radioactive Cell Proliferation Assay; assay type: functional
NCI-H460 = experiment: Anticancer activity against human NCI-H460 cells assessed as cell growth inhibition incubated for 72 hrs by MTT assay; assay type: functional
LN-229 = experiment: Anticancer activity against human LN-229 cells assessed as cell growth inhibition by MTS assay; assay type: functional
CAPAN-1 = experiment: Anticancer activity against human CAPAN-1 cells assessed as cell growth inhibition by MTS assay; assay type: functional
HCT-116 = experiment: Anticancer activity against human HCT-116 cells assessed as cell growth inhibition incubated for 72 hrs by MTT assay; assay type: functional
MCF7 [2] = experiment: Antiproliferative activity against human MCF7 cells assessed as cell growth inhibition incubated for 72 hrs by MTT assay; assay type: functional
[3] = Anticancer activity against human DND41 cells assessed as cell growth inhibition incubated for 72 hrs by CellTiter96 aqueous Non-Radioactive Cell Proliferation Assay; assay type: functional
Z-138 = experiment: Anticancer activity against human Z138 cells assessed as cell growth inhibition incubated for 72 hrs by CellTiter96 aqueous Non-Radioactive Cell Proliferation Assay; assay type: functional
Cholinesterase [4] = biological target: Cholinesterase (Homo sapiens, UniProt P06276); experiment: Inhibition of human BChE
Sequence of Cholinesterase (Homo sapiens, UniProt P06276) (P06276 whole entry): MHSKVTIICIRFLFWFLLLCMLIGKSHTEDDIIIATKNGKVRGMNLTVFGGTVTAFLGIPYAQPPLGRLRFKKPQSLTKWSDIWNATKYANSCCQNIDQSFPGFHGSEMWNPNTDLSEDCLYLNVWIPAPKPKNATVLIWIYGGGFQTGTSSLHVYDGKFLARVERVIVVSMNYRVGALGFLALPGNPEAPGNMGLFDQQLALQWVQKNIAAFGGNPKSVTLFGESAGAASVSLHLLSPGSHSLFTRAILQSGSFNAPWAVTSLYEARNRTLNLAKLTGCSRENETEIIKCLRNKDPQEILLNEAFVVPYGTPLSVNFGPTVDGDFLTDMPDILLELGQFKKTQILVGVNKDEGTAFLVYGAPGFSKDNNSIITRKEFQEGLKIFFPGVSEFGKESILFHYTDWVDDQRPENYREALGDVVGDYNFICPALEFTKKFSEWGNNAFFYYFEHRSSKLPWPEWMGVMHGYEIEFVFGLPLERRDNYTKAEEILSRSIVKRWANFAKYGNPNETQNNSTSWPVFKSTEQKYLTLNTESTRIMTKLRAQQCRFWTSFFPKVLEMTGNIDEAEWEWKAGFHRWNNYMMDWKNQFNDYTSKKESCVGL

Acetylcholinesterase [5] = biological target: T1, Acetylcholinesterase (Homo sapiens, UniProt P22303); experiment: Inhibition of human erythrocyte AChE using acetylthiocholine as substrate preincubated for 5 mins followed by substrate addition by Ellman's reagent based spectrophotometric analysis
T1 sequence (P22303 whole entry): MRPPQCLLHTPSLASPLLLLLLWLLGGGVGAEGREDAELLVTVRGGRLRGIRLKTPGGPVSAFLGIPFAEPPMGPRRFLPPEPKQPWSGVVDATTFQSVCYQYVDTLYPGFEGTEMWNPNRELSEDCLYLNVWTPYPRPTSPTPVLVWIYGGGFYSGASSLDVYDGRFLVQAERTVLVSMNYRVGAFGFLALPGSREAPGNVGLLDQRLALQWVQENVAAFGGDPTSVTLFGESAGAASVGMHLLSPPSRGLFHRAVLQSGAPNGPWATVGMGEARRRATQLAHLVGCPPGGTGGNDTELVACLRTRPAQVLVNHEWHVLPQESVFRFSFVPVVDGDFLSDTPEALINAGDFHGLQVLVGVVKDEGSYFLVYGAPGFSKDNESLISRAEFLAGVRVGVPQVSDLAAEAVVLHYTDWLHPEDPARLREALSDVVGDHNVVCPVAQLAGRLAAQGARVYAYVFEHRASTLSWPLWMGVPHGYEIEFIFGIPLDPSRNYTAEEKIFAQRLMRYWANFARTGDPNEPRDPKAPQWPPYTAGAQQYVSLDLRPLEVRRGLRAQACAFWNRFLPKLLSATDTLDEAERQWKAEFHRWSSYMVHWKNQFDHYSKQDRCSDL

Acetylcholinesterase [6] = biological target: T1, Acetylcholinesterase; experiment: Inhibition of human AChE
Proteus vulgaris = experiment: Antibacterial activity against Proteus vulgaris ATCC6380; assay type: functional
[7] = test system: Mycolicibacterium smegmatis; experiment: Antibacterial activity against Mycobacterium smegmatis; assay type: functional
Pseudomonas aeruginosa [8] = experiment: Antibacterial activity against Pseudomonas aeruginosa; assay type: functional
Staphylococcus aureus [9] = experiment: Antibacterial activity against Staphylococcus aureus; assay type: functional
Escherichia coli [10] = experiment: Antibacterial activity against Escherichia coli ATCC25922; assay type: functional
Enterococcus faecalis = experiment: Antibacterial activity against Enterococcus faecalis ATCC13047; assay type: functional
Bacillus subtilis [11] = experiment: Antibacterial activity against Bacillus subtilis ATCC19659; assay type: functional
[12] = test system: Staphylococcus epidermidis; experiment: Antibacterial activity against Staphylococcus epidermidis; assay type: functional
Pseudomonas mevalonii = experiment: Antibacterial activity against Pseudomonas mevalonii; assay type: functional; settings: Pseudomonas sp. 'mevalonii'
Klebsiella oxytoca = experiment: Antibacterial activity against Klebsiella oxytoca ATCC8724; assay type: functional
[13] = Cytotoxicity against MDCK cells assessed as cell growth inhibition incubated for 72 hrs by MTT assay; assay type: toxicity, cell-based, Canis lupus familiaris; settings: dog
[14] = Antiproliferative activity against human Caco-2 cells assessed as cell growth inhibition incubated for 72 hrs by MTT assay; assay type: toxicity, cell-based
[15] = test system: Mycobacterium tuberculosis; experiment: Antitubercular activity against Mycobacterium tuberculosis H37Rv; assay type: functional
[16] = test system: Mycobacterium tuberculosis; experiment: Antitubercular activity against Mycobacterium tuberculosis H37Rv assessed as inhibition of bacterial growth at 250 microg/ml relative to control; assay type: functional
HepG2 = experiment: Antiproliferative activity against human HepG2 cells assessed as reduction in cell proliferation incubated for 24 hrs by MTT assay; assay type: functional, cell-based; settings: HepG2, 24 h
[17] = Inhibition of ConA-induced TNF-alpha secretion in female BALB/c mouse splenocyte incubated for 48 hrs by ELISA; assay type: functional, cell-based
[18] = Inhibition of ConA-induced IL-1beta secretion in female BALB/c mouse splenocyte incubated for 48 hrs by ELISA; assay type: functional, cell-based
[19] = Inhibition of ConA-induced IL-6 secretion in female BALB/c mouse splenocyte incubated for 48 hrs by ELISA; assay type: functional, cell-based
Acetylcholinesterase [20] = biological target: T2, Acetylcholinesterase (Electrophorus electricus, UniProt O42275); experiment: Inhibition of electric eel AChE using […] as substrate preincubated for 10 mins followed by substrate addition and measured after 5 mins by Ellman's reagent based spectrophotometric analysis
T2 sequence (O42275 whole entry): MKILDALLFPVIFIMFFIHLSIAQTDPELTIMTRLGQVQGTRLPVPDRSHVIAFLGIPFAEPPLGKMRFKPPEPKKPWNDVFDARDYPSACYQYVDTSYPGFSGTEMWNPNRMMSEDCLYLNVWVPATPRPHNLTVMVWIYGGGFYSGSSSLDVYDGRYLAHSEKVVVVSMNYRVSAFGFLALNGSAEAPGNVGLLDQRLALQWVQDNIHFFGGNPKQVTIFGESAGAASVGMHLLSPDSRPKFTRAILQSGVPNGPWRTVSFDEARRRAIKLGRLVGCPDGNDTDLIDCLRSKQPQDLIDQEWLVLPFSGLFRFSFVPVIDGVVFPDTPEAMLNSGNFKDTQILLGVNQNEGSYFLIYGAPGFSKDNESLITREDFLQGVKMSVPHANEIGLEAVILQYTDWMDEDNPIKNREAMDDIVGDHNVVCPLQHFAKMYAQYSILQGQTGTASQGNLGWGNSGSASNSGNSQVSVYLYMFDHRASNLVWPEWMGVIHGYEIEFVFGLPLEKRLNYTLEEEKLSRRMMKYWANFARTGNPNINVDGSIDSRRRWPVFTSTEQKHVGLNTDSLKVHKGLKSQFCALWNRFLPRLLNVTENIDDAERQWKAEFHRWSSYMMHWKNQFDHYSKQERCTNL

Cholinesterase [21] = biological target: T3, Cholinesterase (Equus caballus, UniProt P81908); experiment: Inhibition of equine serum BChE using […] as substrate preincubated for 10 mins followed by substrate addition and measured after 5 mins by Ellman's reagent based spectrophotometric analysis
T3 sequence (P81908 whole entry): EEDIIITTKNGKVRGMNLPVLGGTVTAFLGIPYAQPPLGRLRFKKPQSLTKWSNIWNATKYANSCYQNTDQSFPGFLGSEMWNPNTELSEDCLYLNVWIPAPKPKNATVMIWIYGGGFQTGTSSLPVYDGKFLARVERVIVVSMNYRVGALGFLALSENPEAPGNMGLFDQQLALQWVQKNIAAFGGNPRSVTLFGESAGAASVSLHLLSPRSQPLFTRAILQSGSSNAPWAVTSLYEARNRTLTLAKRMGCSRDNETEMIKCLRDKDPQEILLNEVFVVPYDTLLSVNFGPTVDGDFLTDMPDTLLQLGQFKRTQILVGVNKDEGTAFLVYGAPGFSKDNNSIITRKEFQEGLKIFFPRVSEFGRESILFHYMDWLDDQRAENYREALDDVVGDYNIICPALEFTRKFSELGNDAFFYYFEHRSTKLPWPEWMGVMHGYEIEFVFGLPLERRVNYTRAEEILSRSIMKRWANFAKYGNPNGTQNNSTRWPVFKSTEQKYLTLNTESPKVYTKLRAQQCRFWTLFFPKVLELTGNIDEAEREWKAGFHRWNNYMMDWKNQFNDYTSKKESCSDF

Pseudomonas aeruginosa [22] = experiment: Antibacterial activity against Pseudomonas aeruginosa MTCC 741 by agar streak dilution method; assay type: functional
Staphylococcus aureus [23] = experiment: Antibacterial activity against Staphylococcus aureus MTCC 96 by agar streak dilution method; assay type: functional
Bacillus subtilis [24] = experiment: Antibacterial activity against Bacillus subtilis MTCC 619 by agar streak dilution method; assay type: functional
Escherichia coli [25] = experiment: Antibacterial activity against Escherichia coli MTCC 739 by agar streak dilution method; assay type: functional
HL-60 [26] = experiment: Cytotoxicity against human HL-60 cells assessed as reduction in cell viability incubated for 24 hrs by MTT assay; assay type: functional, cell-based; settings: HL-60, 24 h
Jurkat E6.1 = experiment: Cytotoxicity against human Jurkat E6.1 cells assessed as reduction in cell viability incubated for 24 hrs by MTT assay; assay type: functional, cell-based; settings: Jurkat E6.1, 24 h
[27] = test system: Mycobacterium tuberculosis; experiment: Antitubercular activity against Mycobacterium tuberculosis H37Rv by microplate alamar blue assay; assay type: functional
Acetylcholinesterase [28] = biological target: T2, Acetylcholinesterase; experiment: Inhibition of electric eel AChE using […] as substrate measured after 2 mins by Ellman's reagent based spectrophotometric analysis
Cholinesterase [29] = biological target: T3, Cholinesterase; experiment: Inhibition of equine serum BChE using […] as substrate measured after 2 mins by Ellman's reagent based spectrophotometric analysis
[30] = Cytotoxicity against human Huh-7 cells assessed as reduction in cell viability incubated for 2 days by MTT assay; assay type: toxicity, cell-based; settings: time 2 day
MCF7 [31] = experiment: Antiproliferative activity against human MCF7 cells; assay type: functional, cell-based
A549 = experiment: Antiproliferative activity against human A549 cells; assay type: functional, cell-based

In the case of `C=C(CC(=O)OC)C(=O)NCCCCNc1ccnc2cc(Cl)ccc12`, the GI50 (HL-60 [1]) is reported as 1.9 µM, the GI50 (K562) is reported as 8.1 µM and the GI50 (NCI-H460) is reported as 2 µM. For the same molecule, the GI50 (LN-229) was 1.1 µM, the GI50 (CAPAN-1) was 1.3 µM and the GI50 (HCT-116) was 2 µM. It also gave a GI50 (MCF7 [2]) of 0.8 µM, a GI50 [3] of 3.1 µM and a GI50 (Z-138) of 1.9 µM.
`CC(C)(C)c1ccc(CNCCNc2c3c(nc4ccccc24)CCCCC3)c(C(C)(C)C)c1O` showed an IC50 (Cholinesterase [4]) of 0.084 µM and an IC50 (Acetylcholinesterase [5]) of 1.9 µM.
For `S=C(NCCCCNc1c2c(nc3ccccc13)CCCC2)NCCc1c[nH]c2ccccc12`, the IC50 (Acetylcholinesterase [6]) was 0.025 µM and the IC50 (Cholinesterase [4]) was 0.076 µM.
In the case of `CC1(C)CC[C@]2(C(=O)OCCNc3ccnc4ccc(Cl)cc34)CC[C@]3(C)C(=CC[C@@H]4[C@@]5(C)CC[C@H](O)C(C)(C)[C@@H]5CC[C@]43C)[C@@H]2C1`, the MIC (Proteus vulgaris) is reported as 2500 µg/mL (≈ 3780 µM), the MIC [7] is reported as 1250 µg/mL (≈ 1890 µM) and the MIC (Pseudomonas aeruginosa [8]) is reported as 2500 µg/mL (≈ 3780 µM). The MIC (Staphylococcus aureus [9]) was 1250 µg/mL (≈ 1890 µM), the MIC (Escherichia coli [10]) was 2500 µg/mL (≈ 3780 µM) and the MIC (Enterococcus faecalis) was 1250 µg/mL (≈ 1890 µM). The MIC (Bacillus subtilis [11]) was 2500 µg/mL (≈ 3780 µM), the MIC [12] was 1250 µg/mL (≈ 1890 µM) and the MIC (Pseudomonas mevalonii) was 2500 µg/mL (≈ 3780 µM). The MIC (Klebsiella oxytoca) was 1250 µg/mL (≈ 1890 µM).
`Clc1ccc2c(N3CCN(c4ccc(-c5nc6ccccc6[nH]5)cc4)CC3)ccnc2c1` showed an IC50 at 72 h [13] greater than 100 µM and a GI50 at 72 h [14] greater than 100 µM.
In the case of `O=C(NNc1ccnc2cc(Cl)ccc12)c1cc(-c2ccccc2)nc2ccccc12`, the MIC [15] is reported as 38 µM (≈ 16.1 µg/mL) and the inhibition at 250 µg/mL [16] is reported as 99%.
Work on `Cc1ncsc1/C=N/NC(=O)c1ccc(Nc2ccnc3ccccc23)cc1` yielded an IC50 (HepG2) greater than 80 µM.
In the case of `CCN(CCO)CCCC(C)Nc1ccnc2cc(Cl)ccc12` (centres undefined) [HYDROXYCHLOROQUINE], the IC50 [17] is reported as 10 µM, the IC50 [18] is reported as 3.51 µM and the IC50 [19] is reported as 16.5 µM.
Work on `Cc1ccc(CNCCCCCCNc2ccnc3cc(Cl)ccc23)c(O)c1` yielded an IC50 (Acetylcholinesterase [20]) of 0.26 µM and an IC50 (Cholinesterase [21]) of 1.58 µM.
Work on `CCCCCCOc1ccc(/C=N/Nc2cc(C)nc3ccc(Cl)cc23)cc1` yielded an MIC (Pseudomonas aeruginosa [22]) of 12.5 µg/mL (≈ 31.6 µM), an MIC (Staphylococcus aureus [23]) of 12.5 µg/mL (≈ 31.6 µM) and an MIC (Bacillus subtilis [24]) of 12.5 µg/mL (≈ 31.6 µM). It also gave an MIC (Escherichia coli [25]) of 6.5 µg/mL (≈ 16.4 µM).
In the case of `COc1ccc(/C=C/C(=O)c2ccc(Nc3ccnc4cc(Cl)ccc34)cc2)c(OC)c1`, the IC50 (HL-60 [26]) is reported as 13.5 µM and the IC50 (Jurkat E6.1) is reported as 10.4 µM.
`NC(=O)N/N=C(/C=C/c1ccc(Br)cc1)c1ccc(Nc2ccnc3cc(Cl)ccc23)cc1` gave an MIC [27] of 1.56 µM (≈ 0.812 µg/mL).
Molecule `COc1cc(/C=C/C(=O)NCCCNc2cc(C)nc3ccccc23)ccc1OCc1ccccc1` has an IC50 (Acetylcholinesterase [28]) of 2.47 µM and an IC50 (Cholinesterase [29]) of 0.1 µM.
`Cc1ccc(S(=O)(=O)NCCCCNc2c3c(nc4ccccc24)CCCC3)cc1` gave an IC50 (Cholinesterase [4]) of 0.131 µM.
Work on `COn1cc(CCNC(=S)NCCCCCNc2c3c(nc4ccccc24)CCCC3)c2ccccc21` yielded an IC50 (Acetylcholinesterase [6]) of 0.07 µM and an IC50 (Cholinesterase [4]) of 0.039 µM.
For `Oc1ccccc1CNCCNc1ccnc2cc(Cl)ccc12`, the IC50 (Acetylcholinesterase [20]) was 1.97 µM and the IC50 (Cholinesterase [21]) was 30.3 µM.
`O=C(NCCNc1ccnc2cc(Cl)ccc12)c1ccc(-c2nc3ccccc3[nH]2)cc1` showed an IC50 at 72 h [13] of 100 µM and a GI50 at 72 h [14] of 16.4 µM.
`CCCCCCCCOc1cc(/C=N/Nc2cc(C)nc3ccc(Cl)cc23)cc(OCCCCCCCC)c1OCCCCCCCC` showed an MIC (Pseudomonas aeruginosa [22]) of 6.25 µg/mL (≈ 9.19 µM), an MIC (Staphylococcus aureus [23]) of 6.25 µg/mL (≈ 9.19 µM) and an MIC (Bacillus subtilis [24]) of 25 µg/mL (≈ 36.7 µM). It also gave an MIC (Escherichia coli [25]) of 12.5 µg/mL (≈ 18.4 µM).
For `COc1cc(/C=C/C(=O)c2cccc(Nc3ccnc4cc(Cl)ccc34)c2)cc(OC)c1OC`, the IC50 (HL-60 [26]) was 2.15 µM and the IC50 (Jurkat E6.1) was 1.93 µM.
`CCN(CCCC(C)Nc1ccnc2cc(Cl)ccc12)CCNC(=O)C(F)(F)C1CCN(CC(O)C(F)(F)F)CC1` (centres undefined) gave an IC50 [17] of 15.9 µM, an IC50 [18] of 0.72 µM and an IC50 [19] of 1.6 µM. It also gave a CC50 at 48 h [30] of 16.7 µM.
`CC(=O)n1c2ccccc2c(=O)c2c(-n3ccnc3)nc3ccc(Br)cc3c21` gave an IC50 (MCF7 [31]) of 0.62 µM and an IC50 (A549) of 0.44 µM.
Molecule `C=CC1(O)c2ccccc2Nc2c1c(-n1ccnc1)nc1ccc(Br)cc21` (centres undefined) has an IC50 (MCF7 [31]) of 0.54 µM and an IC50 (A549) of 0.69 µM.
`O=C(N/N=C/c1nc2ccccc2[nH]1)c1ccc(Nc2ccnc3ccccc23)cc1` gave an IC50 (HepG2) greater than 80 µM.
